These results are taken from patent US11541029B2, “High penetration compositions and their applications” (Techfields Pharma Co., Ltd., priority 2008, dated 2023).

Series [1] relates to GK rats (SLAC/GK, type 2 diabetes). Kind of series: Anti-diabetes (type II) activity of HPCs of NSAIAs in GK rats. The note with it: 30 mg/kg transdermally once per day, no fasting. Type of series: in vivo. Here is the method:
(§1) A HPC in the present disclosure lowered blood glucose levels in rat models (SLAC/GK, type 2 diabetes, n=7). 30 mg/kg of 8% diethylaminoethyl acetylsalicylate.HCl salt (P-1, in 25% ethanol); 4-acetamidophenyl salicylyldimethylaminobutyrate.HCl (P-6, in 25% ethanol), diethylaminoethyl 5-(2,4-difluorophenyl)acetylsalicylate.5-(2,4-difluorophenyl)acetylsalicylic acid salt (P-8, in 25% ethanol), diethylaminoethyl salicylsalicylate.HCl salt (P-9, in 25% ethanol), diethylaminoethyl salicylate.AcOH(P-10, in 25% ethanol), diethylaminoethyl 5-acetamido-acetylsalicylate.HCl(P-58, in 25% ethanol), diethylaminoethyl acetylsalicylsalicylate. HCl salt (P-59, in 25% ethanol), diethylaminoethyl acetylsalicylsalicylsalicylate. HCl salt (P-60, in 25% ethanol) were administered transdermally to the backs (6 cm^2, fur was shaved) of GK rats (SLAC/GK, 14-16 weeks old) and normal SD rats (SLAC/SD, 14-16 weeks old) once per day (at 8 am) for 6 weeks.
(§2) The blood glucose levels were measured once every 3 days at 4:30 pm (no fasting) from the third week to the sixth week as shown in Table 10a and 10b. […] Moreover, the blood glucose levels of the rats stayed at normal level (6-9 mmol/L, no fasting) after the treatment was stopped for 40 days.

For a further series, the system named is normal SD rats (SLAC/SD). The series can be described thus: Blood glucose in normal SD rats treated with HPCs of NSAIAs. Type of series: in vivo. To be noted: 30 mg/kg transdermally once per day, no fasting. Here is the method: as §1, §2
The next series relates to SLAC/DB/DB obese mice. Kind of series: Blood glucose and blood lipid levels in DB/DB mice. Type of series: in vivo. To be noted: 30 mg/kg transdermally once per day. The protocol: HPCs in the present disclosure lowered blood glucose levels and blood lipid levels in mice models (SLAC/DB/DB, obese mice, n=7). 30 mg/kg of 8% diethylaminoethyl acetylsalicylate.HCl salt (P-1, in 25% ethanol); 4-acetamidophenyl salicylyldimethylaminobutyrate.HCl (P-6, in 25% ethanol), diethylaminoethyl 5-(2,4-difluorophenyl)acetylsalicylate.5-(2,4-difluorophenyl)acetylsalicylic acid salt (P-8, in 25% ethanol), diethylaminoethyl salicylsalicylate.HCl salt (P-9, in 25% ethanol), diethylaminoethyl salicylate.AcOH(P-10, in 25% ethanol), diethylaminoethyl 5-acetamido-acetylsalicylate.HCl(P-58, in 25% ethanol), diethylaminoethyl acetylsalicylsalicylate.HCl salt (P-59, in 25% ethanol), diethylaminoethyl acetylsalicylsalicylsalicylate.HCl salt (P-60, in 25% ethanol) were administered transdermally to the backs (4 cm^2,fur was shaved) of DB/DB mice(SLAC/DB/DB, 10-12 weeks old) once per day (at 8 am) for 5 weeks. The blood glucose levels were measured once per week and blood lipid levels were measured once every other week.

The subject of series [2] is SLAC:NOD-IDDM, type 1 diabetes. Kind of series: Anti-diabetes (type I) activity of HPCs of NSAIAs. Type of series: in vivo, mice. The note with it: for blood glucose, Baseline: equal to 20 mg/kg of NSAIAs transdermally twice per day for 7 weeks; for blood glucose, Average: fourth week to seventh week, no fasting, equal to 20 mg/kg of NSAIAs transdermally twice per day. The text has this: 10% aqueous solution of diethylaminoethyl acetylsalicylate.acetylsalicylic acid salt (P-1, […]); 4-acetamidophenyl salicylyldimethylaminobutyrate. HCl (P-6), diethylaminoethyl 5-(2,4-difluorophenyl)acetylsalicylate.5-(2,4-difluorophenyl)acetylsalicylic acid salt (P-8), diethylaminoethyl salicylsalicylate.AcOH(P-9), diethylaminoethyl 5-acetamido-acetylsalicylate. HCl (P-58), diethylaminoethyl 2-(ρ-isobutylphenyl) propionate.citric acid (P-59), diethylaminoethyl acetylsalicylsalicylate. acetylsalicylsalicylsalicylic acid salt (P-60) (equal to of 20 mg/kg of NSAIAs) were administered transdermally to the shaved back (about 1.5 cm^2) of mice twice per day (at 8 am and 5 pm) for 7 weeks.
The blood glucose levels were measured once every 3 days at 4:30 pm (no fasting) from the fourth week to the seventh week as shown in Table 11.

Series [3] relates to Human Gastric Cancer HGC-27 cell. The series can be described thus: HGC-27 cell proliferation, MTT assay. Type of series: cell-based. To be noted: Homo sapiens, HGC-27, 72 hours, read-out: HGC-27 cell growth inhibition rate. The protocol:
The inhibition of cellular proliferation was measured by the modified dimethyl thiazolyl diphenyl tetrazolium salt (MTT) [3-(4,5-dimethylthiazol-2-yl)-2,5-diphenyltetrazolium bromide] assay, based on the ability of live cells to converting thiazolyl blue to dark blue formazan. Approximately 3500 cells of HGC-27 (in 100 μl culture solution) were seeded into 96-well culture plates and were cultured for 16 hours at 37° C. Different concentration solution (100 μl) of Taxol (positive control), chlorambucil, or N,N-diethylaminoethyl 4-[bis(2-chloroethyl)amino]benzenebutyrate.HCl salt (HPC of chlorambucil) were added and incubation continued for 72 hours at 37° C. Then MTT were added and incubation continued at 37° C. for 4 h, and 100 μl DMSO was pipetted to solubilize the formazan product for 30 min at room temperature. The absorbency at 570 nm was measured using Bio-Rad micro-plate reader […].
On the technique in general: Formazan colour is commonly taken as a measure of viable cells.

Series [4] concerns human myeloma cell line implanted into mice. The series can be described thus: Survival of mice with multiple myeloma (Example 110, Study B). Type of series: in vivo. The note with it: n=5. Here is the method: Study B: For evaluation of antitumor activity, a human myeloma cell line derived from the ascites of a patient with multiple myeloma was implanted into mice. The experiment was carried out on 17 groups of mice. Control group (A, orally), chlorambucil (group B1: 1 mg/kg, orally, group B2, 3 mg/kg, orally, group B3:1 mg/kg, transdermally, and group B4: 3 mg/kg, transdermally), melphalan (group C1: 1 mg/kg, orally, group C2, 3 mg/kg, orally, group C3:1 mg/kg, transdermally, and group C4: 3 mg/kg, transdermally), N,N-diethylaminoethyl 4-[bis(2-chloroethyl)amino]benzenebutyrate.HBr (the HPC of chlorambucil (group D1: 1 mg/kg, orally, group D2, 3 mg/kg, orally, group D3:1 mg/kg, transdermally, and group D4: 3 mg/kg, transdermally), and 4-[bis(2-chloroethyl)amino]-N-acetyl-L-phenylalanine N,N-diethylaminoethyl ester hydrobromide (the HPC of melphalan) (group E1: 1 mg/kg, orally, group E2, 3 mg/kg, orally, group E3:1 mg/kg, transdermally, and group E4: 3 mg/kg, transdermally).

Series [5] shares this test system. Kind of series: Survival and weight loss of myeloma mice (Example 111). Type of series: in vivo. The note with it: orally; for Weight Loss: day 21; for Life Elongation Rate / None Disease Rate / Survival Period: n=7. An excerpt: A human myeloma cell line derived from the ascites of a patient with multiple myeloma was implanted into mice. The mice was divided into 11 groups: control group (A, orally), melphalan (B1 and B2, orally), chlorambucil (C1 and C2, orally), N,N-diethylaminoethyl 4-[bis(2-chloroethyl)amino]benzenebutyrate.HBr (D1 and D2, transdermally), 4-[bis(2-chloroethyl)amino]-N-acetyl-L-phenylalanine N,N-diethylaminoethyl ester hydrobromide (E1 and E2, transdermally in 5% aqueous solution), and diethylaminoethyl 4-[bis(2-methylsulfonylethyl)amino]benzenebutyrate.HCl (F1 and F2, transdermally in 5% aqueous solution). The body weight loss of mice was determined on day 21.

For `CCN(CC)CCOC(=O)c1ccccc1OC(=O)c1ccccc1OC(=O)c1ccccc1OC(C)=O.Cl` [P-60, diethylaminoethyl acetylsalicylsalicylsalicylate. HCl salt], in series [1], the “blood glucose, Average (Week 2-5)” value came to 9.3 ± 2.9 mmol/L and the “blood glucose, Day 1” value worked out at 15.9 ± 2.8 mmol/L. Further, in the series on normal SD rats (SLAC/SD), the “blood glucose, Average (Week 2-5)” value is 5.7 ± 1.1 mmol/L and the “blood glucose, Day 1” value is 5.6 ± 1.3 mmol/L. In the series on SLAC/DB/DB obese mice, the “Cholesterol (total), Day 1” value is given as 7.0 ± 0.8 mmol/L; the “Cholesterol (total), Week 5” value is listed as 5.0 ± 0.4 mmol/L; the “Triglycerides, Day 1” value is given as 4.3 ± 0.5 mmol/L; the “Triglycerides, Week 5” value is given as 4.3 ± 0.5 mmol/L. In the series with SLAC/DB/DB obese mice, the “blood glucose, Day 1” value is 14.8 ± 2.7 mmol/L and the “blood glucose, Week 5” value is on record as 9.0 ± 2.1 mmol/L. In series [2], the “blood glucose, Baseline” value was found to be 17.5 ± 3.3 mmol/L and the “blood glucose, Average” value is listed as 8.8 ± 1.9 mmol/L.
In the case of `CC(=O)O.CCN(CC)CCOC(=O)c1ccccc1O` [P-10, diethylaminoethyl salicylate.AcOH], in series [1], the “blood glucose, Average (Week 2-5)” value is 9.1 ± 2.2 mmol/L and the “blood glucose, Day 1” value amounted to 16.7 ± 3.2 mmol/L. In the series on normal SD rats (SLAC/SD), the “blood glucose, Average (Week 2-5)” value turned out to be 5.7 ± 1.3 mmol/L and the “blood glucose, Day 1” value is on record as 5.8 ± 1.2 mmol/L. Also, in the series with SLAC/DB/DB obese mice, the “Cholesterol (total), Day 1” value is on record as 6.8 ± 0.4 mmol/L; the “Cholesterol (total), Week 5” value is given as 4.7 ± 0.5 mmol/L; the “Triglycerides, Day 1” value stood at 4.8 ± 0.9 mmol/L; the “Triglycerides, Week 5” value was 2.3 ± 0.3 mmol/L. Also, in the series on SLAC/DB/DB obese mice, the “blood glucose, Day 1” value worked out at 15.1 ± 3.7 mmol/L and the “blood glucose, Week 5” value is given as 9.2 ± 2.3 mmol/L. Also, in series [2], the “blood glucose, Baseline” value is 18.8 ± 3.4 mmol/L and the “blood glucose, Average” value is on record as 8.6 ± 1.8 mmol/L.
Take `CCN(CC)CCOC(=O)c1cc(NC(C)=O)ccc1OC(C)=O.Cl` [P-58, diethylaminoethyl 5-acetamido-acetylsalicylate.HCl]: in series [1], the “blood glucose, Average (Week 2-5)” value was found to be 9.4 ± 3.0 mmol/L and the “blood glucose, Day 1” value came out at 17.1 ± 2.8 mmol/L. In the series on normal SD rats (SLAC/SD), the “blood glucose, Average (Week 2-5)” value stood at 5.8 ± 1.1 mmol/L and the “blood glucose, Day 1” value came out at 5.9 ± 1.2 mmol/L. Moreover, in the series with SLAC/DB/DB obese mice, the “Cholesterol (total), Day 1” value was determined as 7.1 ± 0.3 mmol/L; the “Cholesterol (total), Week 5” value is recorded as 5.1 ± 0.6 mmol/L; the “Triglycerides, Day 1” value is 4.9 ± 0.4 mmol/L; the “Triglycerides, Week 5” value turned out to be 4.3 ± 0.5 mmol/L. In addition, in the series with SLAC/DB/DB obese mice, the “blood glucose, Day 1” value came out at 15.6 ± 2.9 mmol/L and the “blood glucose, Week 5” value was 9.3 ± 2.1 mmol/L. Moreover, in series [2], the “blood glucose, Baseline” value stood at 17.9 ± 3.2 mmol/L and the “blood glucose, Average” value is 8.1 ± 1.9 mmol/L.
For the compound `CC(=O)Nc1ccc(OC(=O)c2ccccc2OC(=O)CCCN(C)C)cc1.Cl` [P-6, 4-acetamidophenyl salicylyldimethylaminobutyrate.HCl], in series [1], the “blood glucose, Average (Week 2-5)” value is given as 9.2 ± 2.7 mmol/L and the “blood glucose, Day 1” value worked out at 16.8 ± 3.0 mmol/L. For the same compound, in the series on normal SD rats (SLAC/SD), the “blood glucose, Average (Week 2-5)” value was 5.8 ± 1.1 mmol/L and the “blood glucose, Day 1” value was determined as 5.7 ± 1.3 mmol/L. Besides, in the series on SLAC/DB/DB obese mice, the “Cholesterol (total), Day 1” value was 7.0 ± 0.4 mmol/L; the “Cholesterol (total), Week 5” value worked out at 4.9 ± 0.5 mmol/L; the “Triglycerides, Day 1” value is recorded as 4.4 ± 0.5 mmol/L; the “Triglycerides, Week 5” value worked out at 2.5 ± 0.3 mmol/L. Also, in the series on SLAC/DB/DB obese mice, the “blood glucose, Day 1” value was 14.2 ± 2.0 mmol/L and the “blood glucose, Week 5” value turned out to be 9.5 ± 2.8 mmol/L. Besides, in series [2], the “blood glucose, Baseline” value stood at 18.9 ± 4.3 mmol/L and the “blood glucose, Average” value is given as 9.5 ± 2.1 mmol/L.
For `O=C(O)CCCc1ccc(N(CCCl)CCCl)cc1` [chlorambucil, reference compound], the inhibition – broadly, the share of the control response that was lost under treatment – at 0.5 µM in series [3] (0.5 μM) was 0.3%. For the same compound, the inhibition at 2 µM in series [3] (2.0 μM) turned out to be 1.6%. Also, the inhibition at 5 µM in series [3] (5.0 μM) was 12.5%. Also, the inhibition at 25 µM in series [3] (25 μM) was found to be 31.5%. In addition, the inhibition at 50 µM in series [3] (50 μM) came out at 39.4%. For the same compound, the inhibition at 75 µM in series [3] (75 μM) turned out to be 41.5%. Besides, the inhibition at 100 µM in series [3] (100 μM) was 53.1%. Besides, in series [3] (200 μM), the inhibition at 200 µM is 62.1%. Further, the inhibition at 500 µM in series [3] (500 μM) is 81%. The “Life Elongation Rate” value was found to be 107% in series [4] (1 mg/kg per day, orally); 99% in series [4] (1 mg/kg per day, transdermally); 151% in series [4] (3 mg/kg per day, orally); 98% in series [4] (3 mg/kg per day, transdermally); 126% in series [5] (1.5 mg/kg per day); 200% in series [5] (3 mg/kg per day). Besides, the “Survival Period” value in series [4] (1 mg/kg per day, orally) was found to be 48.7 ± 5.3 days; in series [4] (1 mg/kg per day, transdermally) it was 46.1 ± 3.6 days; in series [4] (3 mg/kg per day, orally) it was 68.5 ± 4.2 days; in series [4] (3 mg/kg per day, transdermally), 44.6 ± 3.6 days; in series [5] (1.5 mg/kg per day), 54.8 ± 5.5 days; in series [5] (3 mg/kg per day), 87.2 ± 6.9 days. For the same compound, the figures for the “Weight Loss” value in series [5] (1.5 mg/kg per day) and in series [5] (3 mg/kg per day) were 10% and 17%, respectively. The “None Disease Rate” value in series [5] (1.5 mg/kg per day) is given as 2/7; in series [5] (3 mg/kg per day), 3/7.
